Laboratory results: patent US9169254B2, “Spiroimidazolone derivative” (Chugai Seiyaku Kabushiki Kaisha, priority 2009, dated 2015)
Where a name gives a salt, the structure may show the parent alone.

Biological target: T1, human PTH1 receptor (Homo sapiens, UniProt Q03431)
T1 sequence (Q03431 27-593): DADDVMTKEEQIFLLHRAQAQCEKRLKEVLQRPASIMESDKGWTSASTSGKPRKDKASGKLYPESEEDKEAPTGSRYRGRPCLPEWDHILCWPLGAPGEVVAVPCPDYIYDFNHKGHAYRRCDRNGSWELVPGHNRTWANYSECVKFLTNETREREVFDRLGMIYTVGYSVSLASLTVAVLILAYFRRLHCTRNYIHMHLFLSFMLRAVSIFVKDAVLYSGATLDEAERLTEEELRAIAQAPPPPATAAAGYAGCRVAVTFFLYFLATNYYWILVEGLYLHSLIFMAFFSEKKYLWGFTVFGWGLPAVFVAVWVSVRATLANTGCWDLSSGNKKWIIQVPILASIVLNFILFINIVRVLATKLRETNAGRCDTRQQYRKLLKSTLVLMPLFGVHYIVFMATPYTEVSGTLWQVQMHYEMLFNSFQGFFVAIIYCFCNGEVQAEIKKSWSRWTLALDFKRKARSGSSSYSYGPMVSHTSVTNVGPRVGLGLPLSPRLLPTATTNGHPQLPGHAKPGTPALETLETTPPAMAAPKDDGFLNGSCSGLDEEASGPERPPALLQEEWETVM
Test: In vitro cAMP signal activity in HKRK-B7 cells (LLC-PK1 cells overexpressing the human PTH1 receptor)
Assay type: cell-based
Conditions: HKRK-B7 cells; compound at 1×10^−3 M; […]; 0.1 µM

| SMILES | cAMP production activity (%) |
| --- | --- |
| Cc1cc(C(=O)N2CCNCC2)cc(C)c1/C=C/S(=O)(=O)N1CCC2(CC1)N=C(c1cccc(OC(F)(F)F)c1)NC2=O [Compound 446, 8-{(E)-2-[2,6-dimethyl-4-(piperazine-1-carbonyl)-phenyl]-ethenesulfonyl}-2-(3-trifluoromethoxy-phenyl)-1,3,8-triaza-spiro[4.5]dec-1-en-4-one hydrochloride] | 49 |

Same assay, conditions: HKRK-B7 cells; compound at 1×10^−3 M; cAMP produced as percentage of that produced by hPTH(1-34) at 100 nM

| cAMP production activity (%) | SMILES |
| --- | --- |
| 14 | O=C(Nc1ccncc1)c1cccc(CCS(=O)(=O)N2CCC3(CC2)N=C(C2CCCCC2)NC3=O)c1 [Compound 422, 3-[2-(2-cyclohexyl-4-oxo-1,3,8-triaza-spiro[4.5]dec-1-ene-8-sulfonyl)-ethyl]-N-pyridin-4-yl-benzamide] |
| 42 | CC(C)(C)CC(=O)N1CCCC(C2=NC3(CCN(S(=O)(=O)c4cccc(Cl)c4)CC3)C(=O)N2)C1 (stereo not shown) [Compound 423, 8-(3-Chloro-benzenesulfonyl)-2-[1-(3,3-dimethyl-butyryl)-piperidin-3-yl]-1,3,8-triaza-spiro[4.5]dec-1-en-4-one] |
| 2.5 | O=C(CO)N1CCCC(C2=NC3(CCN(S(=O)(=O)c4cccc(Cl)c4)CC3)C(=O)N2)C1 (stereo not shown) [Compound 424, 8-(3-chloro-benzenesulfonyl)-2-[1-(2-hydroxy-acetyl)-piperidin-3-yl]-1,3,8-triaza-spiro[4.5]dec-1-en-4-one] |
| 17 | O=C(c1ccc(Cl)cc1)N1CCCC(C2=NC3(CCN(S(=O)(=O)c4cccc(Cl)c4)CC3)C(=O)N2)C1 (stereo not shown) [Compound 425, 8-(3-Chloro-benzenesulfonyl)-2-[1-(4-chloro-benzoyl)-piperidin-3-yl]-1,3,8-triaza-spiro[4.5]dec-1-en-4-one] |
| 16 | COc1cccc(C(=O)N2CCCC(C3=NC4(CCN(S(=O)(=O)c5cccc(Cl)c5)CC4)C(=O)N3)C2)c1 (stereo not shown) [Compound 426, 8-(3-chloro-benzenesulfonyl)-2-[1-(3-methoxy-benzoyl)-piperidin-3-yl]-1,3,8-triaza-spiro[4.5]dec-1-en-4-one] |
| 8.8 | O=C(c1ccc2[nH]ccc2c1)N1CCCC(C2=NC3(CCN(S(=O)(=O)CCc4cccc5ccccc45)CC3)C(=O)N2)C1 (stereo not shown) [Compound 428, 2-[1-(1H-Indol-5-carbonyl)-piperidin-3-yl]-8-(2-naphthalen-1-yl-ethanesulfonyl)-1,3,8-triaza-spiro[4.5]dec-1-en-4-one] |
| 38 | O=C(CCc1ccccc1)N1CCCC(C2=NC3(CCN(S(=O)(=O)CCc4cccc5ccccc45)CC3)C(=O)N2)C1 (stereo not shown) [Compound 429, 8-(2-naphthalen-1-yl-ethanesulfonyl)-2-[1-(3-phenyl-propionyl)-piperidin-3-yl]-1,3,8-triaza-spiro[4.5]dec-1-en-4-one] |
| 23 | O=C(C1CCc2ccccc2C1)N1CCCC(C2=NC3(CCN(S(=O)(=O)CCc4cccc5ccccc45)CC3)C(=O)N2)C1 (stereo not shown) [Compound 430, 8-(2-naphthalen-1-yl-ethanesulfonyl)-2-[1-(1,2,3,4-tetrahydro-naphthalene-2-carbonyl)-piperidin-3-yl]-1,3,8-triaza-spiro[4.5]dec-1-en-4-one] |
| 14 | O=C(c1ccc2ncccc2c1)N1CCCC(C2=NC3(CCN(S(=O)(=O)CCc4cccc5ccccc45)CC3)C(=O)N2)C1 (stereo not shown) [Compound 431, 8-(2-naphthalen-1-yl-ethanesulfonyl)-2-[1-(quinoline-6-carbonyl)-piperidin-3-yl]-1,3,8-triaza-spiro[4.5]dec-1-en-4-one] |
| 5.1 | O=C(Cc1cnc[nH]1)N1CCCC(C2=NC3(CCN(S(=O)(=O)CCc4cccc5ccccc45)CC3)C(=O)N2)C1 (stereo not shown) [Compound 432, 2-[1-(2-3H-imidazol-4-yl-acetyl)-piperidin-3-yl]-8-(2-naphthalen-1-yl-ethanesulfonyl)-1,3,8-triaza-spiro[4.5]dec-1-en-4-one] |
| 18 | Cc1nc(CC(=O)N2CCCC(C3=NC4(CCN(S(=O)(=O)CCc5cccc6ccccc56)CC4)C(=O)N3)C2)c(C)s1 (stereo not shown) [Compound 433, 2-{1-[2-(2,5-dimethyl-thiazol-4-yl)-acetyl]-piperidin-3-yl}-8-(2-naphthalen-1-yl-ethanesulfonyl)-1,3,8-triaza-spiro[4.5]dec-1-en-4-one] |
| 25 | Cc1oc(-c2ccccc2)nc1CC(=O)N1CCCC(C2=NC3(CCN(S(=O)(=O)CCc4cccc5ccccc45)CC3)C(=O)N2)C1 (stereo not shown) [Compound 434, 2-{1-[2-(5-methyl-2-phenyl-oxazol-4-yl)-acetyl]-piperidin-3-yl}-8-(2-naphthalen-1-yl-ethanesulfonyl)-1,3,8-triaza-spiro[4.5]dec-1-en-4-one] |
| 17 | O=C(Cc1ccccn1)N1CCCC(C2=NC3(CCN(S(=O)(=O)CCc4cccc5ccccc45)CC3)C(=O)N2)C1 (stereo not shown) [Compound 435, 8-(2-naphthalen-1-yl-ethanesulfonyl)-2-[1-(2-pyridin-2-yl-acetyl)-piperidin-3-yl]-1,3,8-triaza-spiro[4.5]dec-1-en-4-one] |
| 28 | O=C(CCCOCc1ccccc1)N1CCCC(C2=NC3(CCN(S(=O)(=O)CCc4cccc5ccccc45)CC3)C(=O)N2)C1 (stereo not shown) [Compound 436, 2-[1-(4-benzyloxy-butyryl)-piperidin-3-yl]-8-(2-naphthalen-1-yl-ethanesulfonyl)-1,3,8-triaza-spiro[4.5]dec-1-en-4-one] |
| 45 | O=C(CCCc1ccccc1)N1CCCC(C2=NC3(CCN(S(=O)(=O)CCc4cccc5ccccc45)CC3)C(=O)N2)C1 (stereo not shown) [Compound 437, 8-(2-naphthalen-1-yl-ethanesulfonyl)-2-[1-(4-phenyl-butyryl)-piperidin-3-yl]-1,3,8-triaza-spiro[4.5]dec-1-en-4-one] |
| 14 | O=C(Cc1ccncc1)N1CCCC(C2=NC3(CCN(S(=O)(=O)CCc4cccc5ccccc45)CC3)C(=O)N2)C1 (stereo not shown) [Compound 438, 8-(2-naphthalen-1-yl-ethanesulfonyl)-2-[1-(2-pyridin-4-yl-acetyl)-piperidin-3-yl]-1,3,8-triaza-spiro[4.5]dec-1-en-4-one] |
| 24 | O=C(/C=C/c1ccccc1)N1CCCC(C2=NC3(CCN(S(=O)(=O)CCc4cccc5ccccc45)CC3)C(=O)N2)C1 (stereo not shown) [Compound 441, 8-(2-Naphthalen-1-yl-ethanesulfonyl)-2-{1-[(E)-(3-phenyl-acryloyl)]-piperidin-3-yl}-1,3,8-triaza-spiro[4.5]dec-1-en-4-one] |
| 2.5 | NCC(=O)N1CCCC(C2=NC3(CCN(S(=O)(=O)c4cccc(Cl)c4)CC3)C(=O)N2)C1 (stereo not shown) [Compound 442, 2-[1-(2-Amino-acetyl)-piperidin-3-yl]-8-(3-chloro-benzenesulfonyl)-1,3,8-triaza-spiro[4.5]dec-1-en-4-one] |
| 46 | CNC1CCN(C(=O)c2ccc(CCS(=O)(=O)N3CCC4(CC3)N=C(c3cccc(C(F)(F)F)c3)NC4=O)c(C)c2)C1 (stereo not shown) [Compound 444, 8-{2-[2-Methyl-4-(3-methylamino-pyrrolidine-1-carbonyl)-phenyl]-ethanesulfonyl}-2-(3-trifluoromethyl-phenyl)-1,3,8-triaza-spiro[4.5]dec-1-en-4-one] |
| 83 | Cc1cc(C(=O)N2CCC(N)C2)ccc1CCS(=O)(=O)N1CCC2(CC1)N=C(c1cccc(C(F)(F)F)c1)NC2=O (stereo not shown) [Compound 445, 8-{2-[4-(3-amino-pyrrolidine-1-carbonyl)-2-methyl-phenyl]-ethanesulfonyl}-2-(3-trifluoromethyl-phenyl)-1,3,8-triaza-spiro[4.5]dec-1-en-4-one hydrochloride] |
| 89 | Cc1cc(C(=O)N2CCN(C(=O)CO)CC2)cc(C)c1/C=C/S(=O)(=O)N1CCC2(CC1)N=C(c1cccc(OC(F)(F)F)c1)NC2=O [Compound 447, 8-((E)-2-{4-[4-(2-Hydroxy-acetyl)-piperazine-1-carbonyl]-2,6-dimethyl-phenyl}-ethenesulfonyl)-2-(3-trifluoromethoxy-phenyl)-1,3,8-triaza-spiro[4.5]dec-1-en-4-one] |
| 64 | COC(=O)CCC(=O)N1CCN(C(=O)c2cc(C)c(/C=C/S(=O)(=O)N3CCC4(CC3)N=C(c3cccc(OC(F)(F)F)c3)NC4=O)c(C)c2)CC1 [Compound 448, 4-[4-(3,5-dimethyl-4-{(E)-2-[4-oxo-2-(3-trifluoromethoxy-phenyl)-1,3,8-triaza-spiro[4.5]dec-1-ene-8-sulfonyl]-vinyl}-benzoyl)-piperazin-1-yl]-4-oxo-butyric acid methyl ester] |
| 94 | Cc1cc(C(=O)N2CCN(C(=O)CCCN(C)C)CC2)cc(C)c1/C=C/S(=O)(=O)N1CCC2(CC1)N=C(c1cccc(OC(F)(F)F)c1)NC2=O [Compound 449, 8-((E)-2-{4-[4-(4-dimethylamino-butyryl)-piperazine-1-carbonyl]-2,6-dimethyl-phenyl}-ethenesulfonyl)-2-(3-trifluoromethoxy-phenyl)-1,3,8-triaza-spiro[4.5]dec-1-en-4-one] |

| SMILES | cAMP production activity (%) |
| --- | --- |
| CC(C)(C)OCC(=O)N1CCCC(C2=NC3(CCN(S(=O)(=O)CCc4cccc5ccccc45)CC3)C(=O)N2)C1 (stereo not shown) [Compound 439, 2-[1-(2-tert-butoxy-acetyl)-piperidin-3-yl]-8-(2-naphthalen-1-yl-ethanesulfonyl)-1,3,8-triaza-spiro[4.5]dec-1-en-4-one] | 33 |
